Results reported in ChEMBL document CHEMBL1201862, “PubChem BioAssay data set” (2004).
The source made the active and inactive calls.

How the values were obtained:
[1] = human group III sPLA2 inhibitors, dose response, biochemical, QFRET, IC50 (AID 743457);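 note: green fluorescence rise as the enzyme cleaves BODIPY PC-A2 in liposomes; potency for inhibition of the enzyme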
[2] = CRF-BP/CRF-R2 complex antagonists, dose response, cell-based, uHTS hits, 384-well (AID 651639); format: functional, Homo sapiens; conditions: read-out: IC50_Mean
[3] = target: T1, Corticotropin-releasing factor receptor 2/Corticotropin-releasing factor-binding protein (Homo sapiens, UniProt P24387+Q13324); assay: activators of CRF receptor 2 with binding protein – uHTS hits, confirmation (AID 602473); format: functional; conditions: read-out: EC50_Mean
T1 sequence (Q13324 whole entry): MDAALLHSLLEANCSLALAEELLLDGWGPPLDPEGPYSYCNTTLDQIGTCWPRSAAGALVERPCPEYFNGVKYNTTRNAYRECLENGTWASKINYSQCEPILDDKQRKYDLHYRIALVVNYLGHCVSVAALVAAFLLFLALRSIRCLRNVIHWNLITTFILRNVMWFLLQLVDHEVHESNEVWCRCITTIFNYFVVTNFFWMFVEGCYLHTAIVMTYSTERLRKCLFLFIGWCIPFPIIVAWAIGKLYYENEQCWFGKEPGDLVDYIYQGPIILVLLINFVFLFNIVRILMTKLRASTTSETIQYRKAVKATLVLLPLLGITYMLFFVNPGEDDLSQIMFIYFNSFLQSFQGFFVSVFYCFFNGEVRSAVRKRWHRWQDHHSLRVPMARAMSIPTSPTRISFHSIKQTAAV
T1 sequence (P24387 whole entry): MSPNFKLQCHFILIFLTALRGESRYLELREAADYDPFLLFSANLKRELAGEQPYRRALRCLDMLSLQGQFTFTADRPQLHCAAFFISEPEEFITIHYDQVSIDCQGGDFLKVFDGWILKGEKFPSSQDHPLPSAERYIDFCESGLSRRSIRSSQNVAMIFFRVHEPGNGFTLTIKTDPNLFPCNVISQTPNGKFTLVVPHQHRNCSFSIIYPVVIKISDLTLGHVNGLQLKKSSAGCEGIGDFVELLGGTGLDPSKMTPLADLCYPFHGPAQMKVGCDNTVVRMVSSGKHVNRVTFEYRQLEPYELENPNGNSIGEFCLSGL

[4] = target: T1, Corticotropin-releasing factor receptor 2/Corticotropin-releasing factor-binding protein; assay: Dose Response confirmation of uHTS hits for small molecule antagonists of the CRF-binding protein and CRF-R2 receptor complex.; format: functional; conditions: read-out: IC50_Mean
[5] = target: Fructose-bisphosphate aldolase (Mycobacterium tuberculosis, UniProt P9WQA3); assay: Fluorescence-based biochemical high throughput dose response assay for inhibitors of the fructose-bisphosphate aldolase (FBA) of M. tuberculosis.; format: functional
Sequence of Fructose-bisphosphate aldolase (P9WQA3 whole entry): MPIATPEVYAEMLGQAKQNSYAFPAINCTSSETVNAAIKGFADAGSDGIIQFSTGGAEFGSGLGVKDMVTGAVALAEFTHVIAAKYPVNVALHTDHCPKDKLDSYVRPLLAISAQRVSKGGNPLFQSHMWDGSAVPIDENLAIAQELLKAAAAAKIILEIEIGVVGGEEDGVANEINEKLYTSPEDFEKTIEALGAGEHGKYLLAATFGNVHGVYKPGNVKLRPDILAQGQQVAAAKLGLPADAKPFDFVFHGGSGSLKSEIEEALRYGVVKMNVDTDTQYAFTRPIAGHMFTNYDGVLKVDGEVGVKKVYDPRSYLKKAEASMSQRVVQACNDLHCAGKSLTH

[6] = target: T2, Protein skinhead-1 (Caenorhabditis elegans, UniProt P34707); format: functional
T2 sequence (P34707 whole entry): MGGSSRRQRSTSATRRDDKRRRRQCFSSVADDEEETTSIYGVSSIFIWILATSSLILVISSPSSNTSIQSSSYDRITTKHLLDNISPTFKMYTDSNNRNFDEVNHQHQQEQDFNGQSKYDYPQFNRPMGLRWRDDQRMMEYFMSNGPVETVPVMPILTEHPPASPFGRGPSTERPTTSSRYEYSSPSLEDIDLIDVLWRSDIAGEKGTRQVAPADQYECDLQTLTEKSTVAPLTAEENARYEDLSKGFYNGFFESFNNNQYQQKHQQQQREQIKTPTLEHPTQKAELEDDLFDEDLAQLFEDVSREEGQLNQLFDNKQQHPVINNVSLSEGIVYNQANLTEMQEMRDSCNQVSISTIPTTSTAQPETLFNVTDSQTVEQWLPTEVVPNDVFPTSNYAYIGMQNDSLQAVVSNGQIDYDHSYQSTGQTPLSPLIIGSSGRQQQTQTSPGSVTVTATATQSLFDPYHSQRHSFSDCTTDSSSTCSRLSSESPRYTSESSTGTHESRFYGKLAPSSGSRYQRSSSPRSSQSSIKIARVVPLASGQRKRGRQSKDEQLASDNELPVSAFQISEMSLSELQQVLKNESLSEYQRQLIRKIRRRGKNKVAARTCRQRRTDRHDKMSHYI

[7] = target: Mitogen-activated protein kinase 10 (Homo sapiens, UniProt P53779); assay: Dose response biochemical screening assay for inhibitors of c-Jun N-Terminal Kinase 3 (JNK3). [Related pubchem assays: 746 ]
Sequence of Mitogen-activated protein kinase 10 (P53779 whole entry): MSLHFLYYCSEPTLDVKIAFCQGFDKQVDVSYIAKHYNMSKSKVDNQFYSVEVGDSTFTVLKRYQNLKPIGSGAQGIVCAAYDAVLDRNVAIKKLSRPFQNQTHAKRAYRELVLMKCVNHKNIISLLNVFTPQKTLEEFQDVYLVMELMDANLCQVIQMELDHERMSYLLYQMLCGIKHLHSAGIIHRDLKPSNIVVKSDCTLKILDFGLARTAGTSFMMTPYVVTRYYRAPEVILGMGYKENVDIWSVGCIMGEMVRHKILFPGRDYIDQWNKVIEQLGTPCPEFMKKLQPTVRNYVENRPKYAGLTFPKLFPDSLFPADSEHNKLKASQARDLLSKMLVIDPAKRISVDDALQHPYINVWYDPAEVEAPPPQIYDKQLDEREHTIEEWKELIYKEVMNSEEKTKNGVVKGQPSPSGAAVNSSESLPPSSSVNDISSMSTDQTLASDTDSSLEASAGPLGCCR

[8] = cells; format: functional, cell-based
[9] = target: T3, Trace amine-associated receptor 1 (Homo sapiens, UniProt Q96RJ0); assay: Counterscreen for agonists of the human trace amine associated receptor 1 (hTAAR1): Fluorescence-based cell-based high throughput dose response assay to identify hTAAR1 agonist that also desensitize TAAR1 receptor response.; format: functional
T3 sequence (Q96RJ0 whole entry): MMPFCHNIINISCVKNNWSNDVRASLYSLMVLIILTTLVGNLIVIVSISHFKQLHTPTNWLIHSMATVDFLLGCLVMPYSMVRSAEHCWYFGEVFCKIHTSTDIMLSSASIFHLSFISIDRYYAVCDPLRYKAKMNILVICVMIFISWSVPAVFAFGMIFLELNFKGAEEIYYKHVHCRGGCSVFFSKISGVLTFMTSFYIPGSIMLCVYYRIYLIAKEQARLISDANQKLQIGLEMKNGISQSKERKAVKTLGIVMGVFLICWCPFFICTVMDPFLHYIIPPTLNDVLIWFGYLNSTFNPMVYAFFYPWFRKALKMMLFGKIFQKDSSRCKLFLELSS

[10] = target: T3, Trace amine-associated receptor 1; assay: Fluorescence-based cell-based high throughput dose response assay to identify agonists of the human trace amine associated receptor 1 (TAAR1).; format: functional
[11] = cells; format: functional, cell-based; remark: listed apart in the source
[12] = target: Steroidogenic factor 1 (Homo sapiens, UniProt Q13285); assay: Counterscreen for inverse agonists of the liver receptor homolog-1 (LRH-1; NR5A2): Luminescence-based cell-based high throughput dose response assay to identify inverse agonists of the Steroidogenic Factor 1 Nuclear Receptor (SF1; NR5A1).; format: functional
Sequence of Steroidogenic factor 1 (Q13285 whole entry): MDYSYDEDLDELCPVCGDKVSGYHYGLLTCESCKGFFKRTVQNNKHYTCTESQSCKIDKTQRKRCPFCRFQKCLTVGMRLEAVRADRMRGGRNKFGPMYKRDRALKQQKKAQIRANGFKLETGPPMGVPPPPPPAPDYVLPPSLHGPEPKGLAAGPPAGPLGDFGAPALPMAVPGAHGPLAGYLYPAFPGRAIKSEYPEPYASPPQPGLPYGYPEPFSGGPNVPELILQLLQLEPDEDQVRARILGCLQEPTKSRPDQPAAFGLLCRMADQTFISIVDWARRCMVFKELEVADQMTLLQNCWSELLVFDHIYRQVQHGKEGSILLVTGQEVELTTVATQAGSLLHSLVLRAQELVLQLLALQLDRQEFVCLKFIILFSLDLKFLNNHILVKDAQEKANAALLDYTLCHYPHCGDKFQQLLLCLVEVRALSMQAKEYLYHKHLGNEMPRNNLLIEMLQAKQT

[13] = StAR promoter reporter inhibition counter-screen, dose response, counter-screen for LRH-1 inverse agonist project, cell-based, luminescence, luciferase reporter (AID 651969); format: functional
[14] = target: Nuclear receptor subfamily 5 group A member 2 (Homo sapiens, UniProt O00482); format: functional, cell-based;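 note: HEK293T cells transfected with LRH-1 and a StAR promoter luciferase reporter; potency for inhibitors that lower LRH-1 driven reporter light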
Sequence of Nuclear receptor subfamily 5 group A member 2 (O00482 whole entry): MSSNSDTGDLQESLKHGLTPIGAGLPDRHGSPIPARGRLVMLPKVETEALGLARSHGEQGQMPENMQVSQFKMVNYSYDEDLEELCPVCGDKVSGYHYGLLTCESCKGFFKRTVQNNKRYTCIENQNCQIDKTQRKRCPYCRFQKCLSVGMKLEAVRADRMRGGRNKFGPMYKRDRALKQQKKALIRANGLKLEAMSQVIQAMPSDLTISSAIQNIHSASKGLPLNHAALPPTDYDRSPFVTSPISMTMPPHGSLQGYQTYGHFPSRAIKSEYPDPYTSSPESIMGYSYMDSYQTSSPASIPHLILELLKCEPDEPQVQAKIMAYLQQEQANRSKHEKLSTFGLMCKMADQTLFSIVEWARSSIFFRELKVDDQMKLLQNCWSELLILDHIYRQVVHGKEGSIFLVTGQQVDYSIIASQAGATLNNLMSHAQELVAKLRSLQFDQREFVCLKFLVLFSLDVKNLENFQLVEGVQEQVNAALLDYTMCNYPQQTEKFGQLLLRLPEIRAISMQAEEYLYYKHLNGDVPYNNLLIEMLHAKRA

[15] = target: Paired box protein Pax-8 (Homo sapiens, UniProt Q06710); assay: inhibitors of PAX8-driven TPO luciferase reporter, dose response, RMG-I cells, cherry-pick (AID 687027); format: functional, cell-based;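 note: luciferase reporter driven by Pax8 target thyroperoxidase promoter measured by SteadyGlo luminescence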
Sequence of Paired box protein Pax-8 (Q06710 whole entry): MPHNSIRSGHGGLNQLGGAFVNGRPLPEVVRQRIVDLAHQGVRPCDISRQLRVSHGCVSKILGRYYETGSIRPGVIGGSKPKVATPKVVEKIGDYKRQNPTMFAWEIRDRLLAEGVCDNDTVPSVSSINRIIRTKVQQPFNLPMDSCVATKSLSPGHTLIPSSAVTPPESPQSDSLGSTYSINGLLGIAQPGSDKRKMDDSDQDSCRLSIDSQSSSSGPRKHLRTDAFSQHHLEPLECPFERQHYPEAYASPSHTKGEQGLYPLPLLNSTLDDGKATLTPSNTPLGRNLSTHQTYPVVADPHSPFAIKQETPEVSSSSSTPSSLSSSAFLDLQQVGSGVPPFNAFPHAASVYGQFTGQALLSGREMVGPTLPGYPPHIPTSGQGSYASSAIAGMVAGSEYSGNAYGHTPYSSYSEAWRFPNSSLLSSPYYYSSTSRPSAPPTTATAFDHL

[16] = non-specific cell cytotoxicity, dose response, cytotoxicity control for PAX8 inhibitor project, plate reader, dry powder samples (AID 743021); format: functional, cell-based
[17] = cytotoxicity in OVCAR8 ovarian cancer cells, dose response, PAX8 project, cell-based, plate reader, dry powder samples (AID 743197); format: functional; conditions: OVCAR-8
[18] = NIH:OVCAR-3 ovarian cancer cell cytotoxicity, dose response, PAX8 inhibitor project, plate reader, dry powder samples (AID 743044); format: functional, cell-based
[19] = IGROV1 ovarian cancer cell cytotoxicity, dose response, PAX8 inhibitor project, plate reader, dry powder samples (AID 743043); format: functional, cell-based; conditions: IGROV-1
[20] = T. cruzi growth inhibition in host cells, dose response, cell-based, plate reader, dry powder, set 2 (AID 652275); format: functional
[21] = target: T4, Disintegrin and metalloproteinase domain-containing protein 17 (Homo sapiens, UniProt P78536); assay: ADAM17 protease inhibitors, dose response, counter-screen for ADAM10 exosite inhibitor project, biochemical, quenched FRET substrate (AID 743253)
T4 sequence (P78536 whole entry, the tested form may be a part): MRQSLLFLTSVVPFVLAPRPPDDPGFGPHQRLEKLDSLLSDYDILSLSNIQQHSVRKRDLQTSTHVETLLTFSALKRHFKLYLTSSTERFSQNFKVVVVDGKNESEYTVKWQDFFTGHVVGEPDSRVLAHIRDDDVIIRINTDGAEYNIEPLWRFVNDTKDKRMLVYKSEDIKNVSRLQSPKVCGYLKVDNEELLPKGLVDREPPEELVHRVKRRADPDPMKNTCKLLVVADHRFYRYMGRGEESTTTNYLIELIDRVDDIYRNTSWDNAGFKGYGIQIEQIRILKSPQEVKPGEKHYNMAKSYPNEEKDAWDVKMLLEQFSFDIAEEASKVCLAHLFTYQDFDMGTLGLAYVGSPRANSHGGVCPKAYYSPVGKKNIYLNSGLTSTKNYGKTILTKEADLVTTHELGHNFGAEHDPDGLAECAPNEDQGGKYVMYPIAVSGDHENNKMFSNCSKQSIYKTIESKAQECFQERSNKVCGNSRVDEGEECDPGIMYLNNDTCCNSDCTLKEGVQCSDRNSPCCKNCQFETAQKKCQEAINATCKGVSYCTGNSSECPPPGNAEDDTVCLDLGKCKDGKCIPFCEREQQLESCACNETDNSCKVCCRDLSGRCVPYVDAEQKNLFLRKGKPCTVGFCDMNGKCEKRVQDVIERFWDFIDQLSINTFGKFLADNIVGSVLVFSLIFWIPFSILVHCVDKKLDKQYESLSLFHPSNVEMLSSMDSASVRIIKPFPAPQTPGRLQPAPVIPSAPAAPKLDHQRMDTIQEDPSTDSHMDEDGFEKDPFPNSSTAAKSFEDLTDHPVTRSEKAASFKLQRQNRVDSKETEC

[22] = ADAM10 inhibitors, peptide cleavage, dose response, biochemical, QFRET (AID 743254);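 note: ADAM10 enzyme with the DM2 quenched FRET peptide as substrate; EDANS fluorescence gain as the protease cuts the substrate; inhibitor potency against ADAM10 proteolytic activity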
[23] = target: T4, Disintegrin and metalloproteinase domain-containing protein 17; assay: exosite inhibitors of ADAM17, dose response, biochemical (AID 743260)
[24] = ADAM10 protease inhibitors, dose response, selectivity assay for ADAM17 exosite inhibitor project, biochemical, FRET peptide substrate, recombinant human ADAM10 (AID 743259);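 note: ADAM10 enzyme cleaving a FRET peptide substrate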
[25] = target: fMet-Leu-Phe receptor (Homo sapiens, UniProt P21462); assay: FPR ligands, dose response (AID 519); format: functional
Sequence of fMet-Leu-Phe receptor (P21462 whole entry): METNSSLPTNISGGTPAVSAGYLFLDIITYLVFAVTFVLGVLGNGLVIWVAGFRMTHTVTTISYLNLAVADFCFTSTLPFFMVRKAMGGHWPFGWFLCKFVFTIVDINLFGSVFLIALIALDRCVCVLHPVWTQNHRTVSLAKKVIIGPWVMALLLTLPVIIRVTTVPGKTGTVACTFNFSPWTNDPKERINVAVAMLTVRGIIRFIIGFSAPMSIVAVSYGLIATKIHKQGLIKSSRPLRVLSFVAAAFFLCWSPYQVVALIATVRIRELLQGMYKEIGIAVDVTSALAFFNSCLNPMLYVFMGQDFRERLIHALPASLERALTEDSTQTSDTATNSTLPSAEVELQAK

[26] = test system: H4; assay: Luminescence Cell-Based Dose Response HTS to Identify Activators of 5'UTR Stem-Loop Driven Prion Protein mRNA Translation in H4 Neuroglioblastoma Cells. [Related pubchem assays: 1829 (Project Summary), 1814 (Primary HTS)]; format: functional; conditions: Homo sapiens
[27] = cells; conditions: HEK293
[28] = Luminescence Cell-Based Dose Response HTS to Identify Activators of Luciferase Translation or Activity in H4 […] Cells. [Related pubchem assays: 1829 (Project Summary), 1814 (Primary HTS)]; format: functional
[29] = Luminescence Cell-Based Dose Confirmation HTS to Identify Activators of 5'UTR Stem-Loop Driven Alpha-Synuclein mRNA Translation in H4 Neuroglioblastoma Cells. [Related pubchem assays: 1829 (Project Summary), 1814 (Primary HTS)]; format: functional
[30] = cells; conditions: A549

With `Cn1cccc1CC(=O)NN=C(S)Nc1ccccc1Cl` the IC50 [1] was > 122 µM (inactive).

With `COc1cccc(CN2C(=O)C(C)N(C(=O)c3ccccc3)c3ccccc32)c1` (stereo unspecified) the IC50 [2] was 9.26 µM (active), the EC50 [3] was > 53 µM (inactive) and the IC50 [4] was 26.9 µM (active).

In the case of `O=C(Nc1ccc(-c2nc3cccnc3s2)cc1)c1ccco1`, the IC50 [5] is reported as 1.32 µM (active), the IC50 [6] is reported as 83.1 µM (inactive) and the IC50 [7] is reported as > 93.1 µM (not active).

With `Cc1cc(O)nc(Nc2cccc(F)c2)n1` the EC50 [8] was > 29.9 µM (inactive), the IC50 [9] was > 29.9 µM (inactive) and the EC50 [10] was 8.54 µM (active). The IC50 [11] was > 29.9 µM (inactive).

In the case of `O=S(=O)(Nc1cc(Cl)ccc1-n1cncn1)c1ccccc1Cl`, the IC50 [2] is reported as > 20 µM (inactive), the EC50 [3] is reported as > 53 µM (inactive) and the IC50 [4] is reported as 32.6 µM (active).

With `O=C(COc1ccc2c3c(c(=O)oc2c1)CCC3)NCc1ccncc1` the IC50 [12] was 35.9 µM (inactive), the IC50 [13] was 35.9 µM (inactive) and the IC50 [14] was 35.9 µM (inactive).

With `Cc1cc(Br)ccc1NC(=O)CN1C(=O)C2CC=CCC2C1=O` (stereo unspecified) the IC50 [12] was 0.105 µM (active), the IC50 [13] was 35.9 µM (inactive) and the IC50 [14] was 0.169 µM (active).

With `C[C@H](CO)N1C[C@H](C)[C@H](CN(C)Cc2ccc(C(F)(F)F)cc2)OCCCC[C@H](C)Oc2ccc(NS(=O)(=O)c3ccccc3)cc2C1=O` the AC50 [15] was 9.01 µM (active), the AC50 [16] was 55.7 µM (active) and the AC50 [17] was 48.9 µM (active). The AC50 [18] was 45 µM (active) and the AC50 [19] was 55.8 µM (active).

For `OCc1ccc2c(c1)c(-c1ccc3c(c1)OCCO3)c(-c1ccccc1)n2-c1ccccc1`, the IC50 [5] was 0.913 µM (active).

With `C[C@@H]1CN([C@@H](C)CO)C(=O)Cc2cc(NC(=O)Nc3ccc4c(c3)OCO4)ccc2O[C@H]1CN(C)CC1CCCCC1` the AC50 [15] was 9.15 µM (active), the AC50 [18] was 37 µM (active) and the AC50 [19] was 58.1 µM (active).

In the case of `CC(=O)c1ccc(NC(=O)Nc2ccccc2)cc1`, the EC50 [8] is reported as > 29.9 µM (inactive), the IC50 [9] is reported as > 3.32 µM (active) and the EC50 [10] is reported as 3.14 µM (active). For the same compound, the IC50 [11] was 29.8 µM (inactive).

In the case of `CN(C)C(=O)c1ccc(-c2ccc([C@H]3[C@H](CO)N4CCCCN(Cc5cncnc5)C[C@@H]34)cc2)cc1`, the AC50 [20] is reported as 0.472 µM (active).

For `C=CCC[C@@H](Cc1ccc(F)cc1)C(=O)OC[C@@H](NC(=O)[C@H](CC=C)CC(=O)N(CCO)Cc1ccccc1)c1ccccc1`, the IC50 [21] was > 69.5 µM (inactive) and the IC50 [22] was 27.4 µM (inactive).

For `O=C(CSc1ccc(Cl)cc1Cl)N1CCC(c2nc3ccccc3s2)CC1`, the IC50 [21] was > 69.5 µM (inactive), the IC50 [23] was > 69.5 µM (inactive) and the IC50 [24] was 18.8 µM (inactive). For the same compound, the IC50 [22] was 22.1 µM (inactive).

In the case of `COc1ccc(C(=O)C2=C(O)C(=O)N(CCN3CCOCC3)C2c2ccc(C)cc2)cc1` (stereo unspecified), the Ki [25] is reported as > 66.7 µM (inactive).

In the case of `COC(=O)c1cc(=O)n(Cc2ccc3c(c2)OCO3)/c(=N/c2ccc(F)c(Cl)c2)s1`, the EC50 [26] is reported as > 120 µM (not active), the AC50 [27] is reported as 20 µM (active) and the EC50 [28] is reported as > 120 µM (not active). The EC50 [29] was 10.4 µM (active) and the AC50 [30] was 23.3 µM (active).
